Source: US4172148A, “Ruminant feeds containing trichloroethyl esters of essential amino acids” (E. R. Squibb & Sons, Inc., priority 1978, dated 1979)

Key:
[1] = tested on: volatile fatty acid concentrations in the in vitro rumen fermentation; test: in vitro rumen fermentation, volatile fatty acids, alfalfa hay:concentrate 3:1 (Examples 3 and 12); design: species or system sheep; conditions: 0.2 mg/ml; 6 h, 39° C.
Protocol: (§1) A one gram sample of substrate ground through a 1 mm screen is weighed into 100 ml. lipless beakers equipped with gas-release valves. The substrate consists of alfalfa hay containing approximately 16% protein and a concentrate containing ground corn 60.7%, alfalfa meal 17.5%, molasses 10.0%, soybean meal 5.3%, wheat bran 5.0%, trace mineralized salt 1.0%, limestone 0.5% and Vitamin D 300,000 I.U./ton, mixed in the proportion 3:1. The experimental composition is added to the substrate. 25 ml. of filtered rumen fluid obtained from fasted sheep maintained on feed the same as the above mentioned substrate and 25 ml. of McDougal's buffer solution serve as the inoculum. The buffer solution is as follows:
(§2) The fermentation mixture is flushed with carbon dioxide and the vessel is capped with a gas release valve. The fermentation vessel (beaker) is placed in a water bath and incubated at 39° C.±1° for six hours. The sample is mixed every hour by shaking the beaker.
(§3) At the end of the 6-hour fermentation period the sample is strained through 4 layers of cheesecloth into a sample bottle containing 1 ml. saturated solution of mercuric chloride. The sample is frozen immediately until analyzed for the volatile fatty acids (VFA) (mg/100 ml.). Prior to analysis, each sample is acidified with 30% phosphoric acid and then analyzed by gas chromatography using a column containing 5% nonylphenoxypolyoxyethylene ethanol plus 0.5% phosphoric acid on 100-120 mesh Gas Chrom S. The acids determined are acetic, propionic, butyric, isobutyric, valeric and isovaleric acids. Total VFA is considered as the addition of these acids. The ratio of acetic: propionic (A:P) is obtained by dividing the concentration of acetic acid by that of propionic acid.
The effect of various compounds alone on the volatile fatty acid concentrations was determined by the procedure of Example 3. […] A direct comparison between phenylalanine and phenylalanine trichloroethyl ester is provided.

growing lambs = test: body weight gain and feed efficiency of growing lambs (Examples 9-11); type: in vivo, lambs (sheep); conditions: 0.0044% (40 g/ton) in feed
Protocol: A test was conducted to determine if feeding L-phenylalanine, 2,2,2-trichloroethyl ester to growing lambs was effective in improving growth and feed efficiency. Wether and ewe lambs were divided into groups of 30 lambs each. They were acclimated to their pens for 2 weeks prior to treatment.
The feed supplied to the animals had the following composition
The test compound in an amount of 0.0055% (50 g/ton) was admixed with the above feed composition.
Body weights and feed consumption were recorded at 0, 2, 4 and 6 weeks. Feed efficiencies were calculated.
The test procedure of Example 9 was followed to test the growth effect and feed efficiency of glycine 2,2,2-trichloroethyl ester on growing lambs. The feed composition of Example 9 was used but contained glycine 2,2,2-trichloroethyl ester in an amount of 0.0044% (40 g/ton). There were 44 lambs in the control group receiving the feed composition without additive and 42 lambs receiving the feed composition containing the amino acid ester.
The test procedure of Example 9 was followed to test the growth effect and feed efficiency of L-phenylalanine 2,2,2-trichloroethyl ester on growing lambs. The feed composition of Example 9 was used but contained 0.0088% (80 g/ton) of this amino acid ester. There were 59 lambs in the control group fed the feed without additive and 58 lambs in the group fed the feed composition containing the test compound.

[2] = tested on: volatile fatty acid concentrations in fistulated sheep; test: volatile fatty acid concentrations in vivo in fistulated sheep, 227 g concentrate and 680 g alfalfa hay (Examples 5 and 8)
Source text: Mature sheep (wethers) fitted with permanent rumen fistulae were used to determine the effect of L-phenylalanine, 2,2,2-trichloroethyl ester on volatile fatty acid concentrations in vivo (3 wethers per treatment). The animals were individually penned and fed 227 g. of concentrate (described in Example 3) and 680 g. of alfalfa hay once daily. The test compound was admixed with the concentrate. The sheep were medicated for 7 days. Samples for analysis were obtained before (Day 0) and after treatment (Day 7) approximately 6 hours after feeding.

[3] = tested on: volatile fatty acid concentrations in the in vitro rumen fermentation; test: in vitro rumen fermentation, volatile fatty acids, high concentrate substrate, alfalfa hay:concentrate 1:3 (Examples 4 and 7); design: species or system sheep; conditions: for Acetic acid / Acetic:propionic / Butyric acid / Propionic acid / Total acids: hay:concentrate 1:3
Protocol: as §1, §2, §3
The procedure is described in Example 3. In this example, however, the substrate consisted of alfalfa hay and concentrate in the ratio of 1:3 and inoculum was obtained from sheep fed alfalfa and concentrate in the ratio of 1:3. The concentrate (Fit-N-Fresh) is commercially available from Agway, Inc. and contains grain products, plant protein products, processed grain by-products, cane molasses, minerals, vitamins and a preservative.
The 2,2,2-trichloroethyl ester of glycine was tested in vitro in a manner similar to that described in Example 4.

N[C@@H](Cc1ccc(Cl)cc1)C(=O)O (racemic) [p-chlorophenylalanine, reference compound]
Acetic acid [1]: 91 % of control
Acetic:propionic [1]: 101 % of control
Butyric acid [1]: 92 % of control
Propionic acid [1]: 91 % of control
Total acids [1]: 91 % of control

Br.NCC(=O)OCC(Cl)(Cl)Cl [2,2,2-trichloroethyl ester of glycine, aminoacetic acid 2,2,2-trichloroethyl ester, hydrobromide]
Weight gain (growing lambs; 0-2 wks, control 2.32): 2.31 kg
Weight gain (growing lambs; 0-4 wks, control 5.09): 5.13 kg
Feed efficiency (growing lambs; 0-6 wks, control 0.148): 0.154 gain/feed
Weight gain (growing lambs; 0-6 wks, control 7.18): 7.37 kg
Acetic:propionic ratio ([2]; Example 8, 500 mg/head/day, treatment, pre-treatment 3.36, control treatment 3.38): 2.86
Other acids (%) ([2]; Example 8, 500 mg/head/day, treatment, pre-treatment 6.1, control treatment 4.2): 6.6%
Butyric acid (%) ([2]; Example 8, 500 mg/head/day, treatment, pre-treatment 15.1, control treatment 14.6): 17.9%
Propionic acid (%) ([2]; Example 8, 500 mg/head/day, treatment, pre-treatment 18.1, control treatment 18.6): 19.6%
Acetic acid (%) ([2]; Example 8, 500 mg/head/day, treatment, pre-treatment 60.8, control treatment 62.7): 56.0%
Total acid ([2]; Example 8, 500 mg/head/day, treatment, pre-treatment 715, control treatment 678): 731 mg/100 ml
effect on acetic:propionic ratio (in words) ([2]; fistulated sheep, 7 days): decreasing the acetic:propionic ratio
effect on proportion of propionic acid (in words) ([2]; fistulated sheep, 7 days): effective in increasing the proportion of propionic acid
Acetic acid ([3]; 0.2 mg/ml): 79 % of control
Acetic:propionic ([3]; 0.2 mg/ml): 64 % of control
Butyric acid ([3]; 0.2 mg/ml): 119 % of control
Propionic acid ([3]; 0.2 mg/ml): 123 % of control
Total acids ([3]; 0.2 mg/ml): 98 % of control
Acetic acid ([3]; 0.4 mg/ml): 79 % of control
Acetic:propionic ([3]; 0.4 mg/ml): 64 % of control
Butyric acid ([3]; 0.4 mg/ml): 119 % of control
Propionic acid ([3]; 0.4 mg/ml): 123 % of control
Total acids ([3]; 0.4 mg/ml): 98 % of control
effect on acetic:propionic ratio (in words) ([3]; high concentrate substrate): decreasing the acetic:propionic ratio
effect on propionic acid concentration (in words) ([3]; high concentrate substrate): effective in increasing propionic acid concentration

N[C@@H](Cc1ccccc1)C(=O)O [L-phenylalanine, reference compound]
Acetic acid [1]: 95 % of control
Acetic:propionic [1]: 100 % of control
Butyric acid [1]: 97 % of control
Propionic acid [1]: 94 % of control
Total acids [1]: 96 % of control

O=CC(Cl)(Cl)Cl [choral, reference compound]
Acetic acid [1]: 88 % of control
Acetic:propionic [1]: 80 % of control
Butyric acid [1]: 110 % of control
Propionic acid [1]: 110 % of control
Total acids [1]: 96 % of control
